This passage reports IC50 results from patent US20120088746A1, “AMIDE DERIVATIVES AS ION-CHANNEL LIGANDS AND PHARMACEUTICAL COMPOSITIONS AND METHODS OF USING THE SAME” (PFIZER INC., priority 2006, published 2012).

The target of the assay is human VR1 (Homo sapiens, UniProt Q8NER1). The experiment in a line: Acid stimulation assay (acid-induced intracellular calcium change, FDSS 6000). In kind it is cell-based. The conditions noted are these: final assay buffer pH5.8, 15 min pre-incubation, read-out: IC50 (nM) Low pH. The source says:
VR1 antagonistic activity can be determined by the Ca^2+ imaging assay using human VR1 highly expressing cells. The cells that highly express human VR1 receptors are obtainable from several different conventional methods. The one standard method is cloning from human Dorsal Root Ganglion (DRG) or kidney according to the methods such as described in the journal article; Nature, 389, pp 816-824, 1997. Alternatively VR1 receptors highly expressing human keratinocytes are also known and published in the journal article (Biochemical and Biophysical Research Communications, 291, pp 124-129, 2002). […] Furthermore, the method to up regulate human VR1 gene, which is usually a silent gene or don't produce detectable level of VR1 receptors, is also available to obtain propriety cells. Such genetic modification method was described in detail; Nat. Biotechnol., 19, pp 440-445, 2001.
The cells that express human VR1 receptors were maintained in culture flask at 37° C. in an environment containing 5% CO2 until use in the assay. The intracellular Ca^2+ imaging assay to determine VR1 antagonistic activities were done by following procedures.
The culture medium was removed from the flask and fura-2/AM fluorescent calcium indicator was added to the flask at a concentration of 5 μM in the medium. The flask was placed in CO2 incubator and incubated for 1 hour. Then the cells expressing the human VR1 receptors were detached from the flask follow by washing with phosphate buffer saline, PBS(−) and re-suspended in assay buffer. The 80 tit of aliquot of cell suspension (3.75×10^5 cells/ml) was added to the assay plate and the cells were spun down by centrifuge (950 rpm, 20° C., 3 minutes).
The Acid-induced changes in the intracellular calcium concentration were monitored using FDSS 6000 (Hamamatsu Photonics, Japan), a fluorometric imaging system. The cell suspension in resting buffer (HBSS supplemented with 10 mM HEPES, pH 7.4) were pre-incubated with varying concentrations of the test compounds or resting buffer (buffer control) for 15 minutes at room temperature under the dark condition. The cells were automatically added the stimulating solution (HBSS supplemented with MES, final assay buffer pH5.8) by the FDSS 6000.
The Acid-induced changes in the intracellular calcium concentration were monitored using FDSS 6000 (Hamamatsu Photonics, Japan), a fluorometric imaging system. The cell suspension in resting buffer (HBSS supplemented with 10 mM HEPES, pH 7.4) was pre-incubated with varying concentrations of the test compounds or resting buffer (buffer control) for 15 minutes at room temperature under dark conditions. The cells were automatically added to the stimulating solution (HBSS supplemented with MES, final assay buffer pH5.8) by the FDSS 6000.

human VR1, sequence (Q8NER1 whole entry): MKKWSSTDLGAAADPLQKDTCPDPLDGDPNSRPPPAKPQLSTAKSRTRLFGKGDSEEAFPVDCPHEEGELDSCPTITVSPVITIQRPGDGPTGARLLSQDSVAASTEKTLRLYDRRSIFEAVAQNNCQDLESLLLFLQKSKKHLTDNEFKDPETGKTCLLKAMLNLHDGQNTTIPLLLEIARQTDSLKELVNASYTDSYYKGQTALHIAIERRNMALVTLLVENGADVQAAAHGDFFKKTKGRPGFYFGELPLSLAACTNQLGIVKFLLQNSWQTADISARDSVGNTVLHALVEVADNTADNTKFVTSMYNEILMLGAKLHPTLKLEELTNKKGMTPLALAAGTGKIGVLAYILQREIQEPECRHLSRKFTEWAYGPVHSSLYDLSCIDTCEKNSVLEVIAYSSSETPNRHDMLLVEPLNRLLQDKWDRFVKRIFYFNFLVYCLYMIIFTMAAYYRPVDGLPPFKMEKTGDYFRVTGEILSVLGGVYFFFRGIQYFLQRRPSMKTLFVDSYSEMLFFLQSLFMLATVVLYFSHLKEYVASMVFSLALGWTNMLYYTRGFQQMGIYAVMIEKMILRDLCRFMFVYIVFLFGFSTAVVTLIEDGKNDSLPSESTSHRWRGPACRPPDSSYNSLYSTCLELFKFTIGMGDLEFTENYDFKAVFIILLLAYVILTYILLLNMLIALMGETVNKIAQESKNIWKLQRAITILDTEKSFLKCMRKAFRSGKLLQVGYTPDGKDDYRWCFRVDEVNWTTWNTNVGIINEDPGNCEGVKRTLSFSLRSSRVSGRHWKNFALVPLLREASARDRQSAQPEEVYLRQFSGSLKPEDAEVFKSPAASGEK

For orientation: IC50 means the concentration needed to halve the response being measured. Consider `Cc1cc([C@@H](C)NC(=O)c2ccc3nc(C(F)(F)F)cc(N4CCC[C@@H]4CO)c3c2)c(F)cc1NS(C)(=O)=O` [Example 93, 4-((R)-2-HYDROXYMETHYLPYRROLIDIN-1-YL)-2-TRIFLUOROMETHYLQUINOLINE-6-CARBOXYLIC ACID [(R)-1-(2-FLUORO-4-METHANESULFONYLAMINO-5-METHYLPHENYL)ETHYL]AMIDE], for which the half-inhibitory concentration (IC50) worked out at 370 nM.

Take `Cc1cc([C@@H](C)NC(=O)c2ccc3nc(C(F)(F)F)cc(OC4CCOCC4)c3c2)c(F)cc1NS(C)(=O)=O` [Example 94, 4-(TETRAHYDRO-PYRAN-4-YLOXY)-2-TRIFLUOROMETHYL-QUINOLINE-6CARBOXYLIC ACID [(R)-1-(2-FLUORO-4-METHANESULFONYLAMINO-5-METHYL-PHENYL)-ETHYL]-AMIDE]: the IC50 was 35 nM.

Regarding `CCOC(=O)N1CCN(c2nc(C(F)(F)F)nc3ccc(C(=O)N[C@H](C)c4cc(C)c(NS(C)(=O)=O)cc4F)cc23)CC1` [Example 96, 4-{6-[(R)-1-(2-FLUORO-4-METHANESULFONYLAMINO-5-METHYL-PHENYL)-ETHYLCARBAMOYL]-2-TRIFLUOROMETHYL-QUINAZOLIN-4-YL}-PIPERAZINE-1-CARBOXYLIC ACID ETHYL ESTER], the IC50 came out at 41 nM.

On to `Cc1cc([C@@H](C)NC(=O)c2ccc3nc(C(F)(F)F)cc(NC4CCCCC4)c3c2)c(F)cc1NS(C)(=O)=O` [Example 97, 4-CYCLOHEXYLAMINO-2-TRIFLUOROMETHYLQUINOLINE-6-CARBOXYLIC ACID [(R)-1-(2-FLUORO-4-METHANESULFONYLAMINO-5-METHYLPHENYL)ETHYL]AMIDE], for which the concentration for half-maximal inhibition (IC50) came out at 41 nM.

For the molecule `Cc1cc([C@@H](C)NC(=O)c2ccc3nc(C(F)(F)F)cc(N4CCC(CO)CC4)c3c2)c(F)cc1NS(C)(=O)=O` [Example 99, 4-(4-HYDROXYMETHYL-PIPERIDIN-1-YL)-2-TRIFLUOROMETHYL-QUINOLINE-6-CARBOXYLIC ACID [(R)-1-(2-FLUORO-4-METHANESULFONYLAMINO-5-METHYL-PHENYL)-ETHYL]-AMIDE], the IC50 amounted to 630 nM.

With `Cc1cc([C@@H](C)NC(=O)c2ccc3cc(C(C)(O)C(F)(F)F)ccc3c2)c(F)cc1NS(C)(=O)=O` (stereo partly shown) [Example 101], the IC50 was determined as 41 nM.

Turning to `Cc1cc([C@@H](C)NC(=O)c2ccc3cc(-n4cccn4)ccc3c2)c(F)cc1NS(C)(=O)=O` [Example 105, 6-PYRAZOL-1-YL-NAPHTHALENE-2-CARBOXYLIC ACID [(R)-1-(2-FLUORO-4-METHANESULFONYLAMINO-5-METHYL-PHENYL)-ETHYL]-AMIDE], the IC50 was determined as 147 nM.

For the molecule `Cc1cc([C@@H](C)NC(=O)c2ccc3nc(C(F)(F)F)nc(N4CCC(Cc5ccccc5)CC4)c3c2)c(F)cc1NS(C)(=O)=O` [Example 106, 4-(4-BENZYL-PIPERIDIN-1-YL)-2-TRIFLUOROMETHYL-QUINAZOLINE-6-CARBOXYLIC ACID [(R)-1-(2-FLUORO-4-METHANESULFONYLAMINO-5-METHYL-PHENYL)-ETHYL]-AMIDE], the concentration for half-maximal inhibition (IC50) turned out to be 6 nM.

Consider `COC1CCN(c2ccc3cc(C(=O)N[C@H](C)c4cc(C)c(NS(C)(=O)=O)cc4F)ccc3n2)CC1` [Example 107], for which the IC50 came out at 337 nM.

As for `Cc1cc([C@@H](C)NC(=O)c2ccc3nc(C4(C)CC4)ccc3c2)c(F)cc1NS(C)(=O)=O` [Example 108, N-((1R)-1-{2-FLUORO-5-METHYL-4-[(METHYLSULFONYL)AMINO]PHENYL}ETHYL)-2-(1-METHYLCYCLOPROPYL)QUINOLINE-6-CARBOXAMIDE], the half-inhibitory concentration (IC50) was found to be 5 nM.

As for `Cc1cc([C@@H](C)NC(=O)c2ccc3nc(N4CCC(F)(F)CC4)ccc3c2)c(F)cc1NS(C)(=O)=O` [Example 110, (R)-2-(4,4-DIFLUOROPIPERIDIN-1-YL)-N-(1-(2-FLUORO-5-METHYL-4-(METHYLSULFONAMIDO)PHENYL)ETHYL)QUINOLINE-6-CARBOXAMIDE], the concentration for half-maximal inhibition (IC50) is 94 nM.

For `Cc1cc([C@@H](C)NC(=O)c2ccc3nc(C(F)(F)F)nc(N4CCOCC4)c3c2)c(F)cc1NS(C)(=O)=O` [Example 112, 4-MORPHOLIN-4-YL-2-TRIFLUOROMETHYL-QUINAZOLINE-6-CARBOXYLIC ACID [(R)-1-(2-FLUORO-4-METHANESULFONYLAMINO-5-METHYL-PHENYL)-ETHYL]-AMIDE], the IC50 is 33 nM.

Consider `Cc1cc([C@@H](C)NC(=O)c2ccc3nc(N4CCC(C)(C)CC4)ccc3c2)c(F)cc1NS(C)(=O)=O` [Example 113], for which the concentration for half-maximal inhibition (IC50) came to 149 nM.
